Reference: paper PMC6862323, “Substitution of Arginine 120 in Human D-Amino Acid Oxidase Favors FAD-Binding and Nuclear Mistargeting” (Frontiers in Molecular Biosciences, 2019)
Where two headings read alike, the source gives them in different places.

How the values were obtained:
[1] = target: T1, R120E hDAAO variant (Homo sapiens, UniProt P14920, R120E); test: FAD and ligand binding by quenching of protein fluorescence, R120E hDAAO
T1 construct: His-tag (N); made in house; host or cells: E. coli BL21 (DE3) Star
Experimental: (§1) Protein fluorescence spectra were recorded between 300 and 400 nm, with excitation at 280 nm using a Jasco FP-750 instrument (excitation slit of 10 nm; emission slit of 5 nm) in 10 mM potassium phosphate, pH 8.0, 1% (v/v) glycerol, 5 mM 2-mercaptoethanol, […]

[2] = tested on: W209R hDAAO; parameters: method as in Cappelletti et al., 2015; conditions: compared with wild-type hDAAO; ref Cappelletti et al., 2015; cited from earlier work
[3] = target: T2, R120L hDAAO variant (Homo sapiens, UniProt P14920, R120L); test: FAD and ligand binding by quenching of protein fluorescence, R120L hDAAO
T2 construct: His-tag (N); made in house; host or cells: E. coli BL21 (DE3) Star
Experimental: as §1

[4] = target: wild-type hDAAO; conditions: ref Murtas et al. (2017), cited from earlier work
[5] = tested on: U87 glioblastoma cells; test: Confocal analysis of cellular distribution of EYFP-hDAAO variants in transiently transfected U87 cells; assay type: cell-based, human
Experimental: Human U87 glioblastoma cells (ATCC) were cultured in DMEM supplemented with 10% fetal bovine serum, 1 mM sodium pyruvate, 2 mM L-glutamine, 1% non-essential amino acids, 1% penicillin/streptomycin, and 1% amphotericin B (Euroclone), at 37°C in 5% CO2. The cells were transfected either with the pEYFP-hDAAO-C3 construct (for the expression of the wild-type enzyme downstream of the enhanced yellow fluorescent protein, EYFP) (Sacchi et al., [2008], [2011]), the pEYFP-hDAAO(R120L)-C3, or the pEYFP-hDAAO(R120E)-C3 expression vectors. The latter constructs were obtained by mutagenesis using the QuikChange Lightning Site-Directed Mutagenesis Kit (Agilent), and the following primers: 5′-[…]-3′ and 5′-[…]-3′ for the R120E substitution, and 5-[…]-3′ and 5′-[…]-3′ for the R120L substitution.
For transient transfection, 2 ×10^4 cells were seeded into eight-well chamber slides (Sarstedt). At 24 h after seeding, cells were transfected with 2 μg plasmid DNA using a 4:1 ratio of FuGENE transfection reagent (Promega) to DNA. Then, 12.5 μL of transfection mix was added to 500 μL medium per well. Protein expression levels were monitored by using a fluorescence microscope (Olympus IX51) equipped with a FITC filter and by Western blot analysis using an anti-hDAAO antibody (Davids Biotechnologie) (Sacchi et al., [2008], [2011]).
At 24, 48, and 72 h after transfection, cells were washed twice with PBS and fixed with ice-cold 4% p-formaldehyde and 4% sucrose for 10 min at room temperature. After fixation, cells were washed twice with PBS and blocked by incubation in PBS supplemented with 0.2% Triton X-100 and 4% horse serum for 30 min at room temperature. Peroxisomes were stained using rabbit polyclonal anti-PMP70 (peroxisomal membrane protein 70, Sigma), diluted 1:500 in PBS, 0.1% Triton X-100, and 4% horse serum overnight at 4°C; they were then washed twice in PBS and 1% horse serum and incubated for 1 h at room temperature (light protected) with goat anti-rabbit Dylight 550 secondary antibodies (Abcam) diluted 1:400 in PBS, 0.1% Triton X-100, and 1.5% horse serum. Cells were then extensively washed in PBS and nuclei were stained with DRAQ5™ (Thermo Scientific) and diluted 1:500 in PBS for 10 min at room temperature in the dark. Cells were washed three times with PBS and stored in PBS at 4°C until imaging.
Immunostained cells were imaged using an inverted laser scanning confocal microscope (TCS SP5, Leica Microsystems), equipped with a 63.0 ×1.25 NA plan apochromatic oil immersion objective. Confocal image stacks were acquired using the Leica TCS software with a sequential mode to avoid interference between each channel and without saturating any pixel. Cells in 10–15 non-magnified optical fields were analyzed for each condition (i.e., different EYFP-hDAAO expression constructs at different times after transfection). The fluorescence signal corresponding to the overexpressed EYFP-hDAAO variants was monitored by excitation at 514 nm (yellow channel); the peroxisomal and nuclear cellular compartments were imaged by excitation at 546 nm (red channel) and 647 nm (blue channel), respectively.
U87 glioblastoma cells were transiently transfected with a pEYFP-hDAAO-C3 plasmid encoding for EYFP-hDAAO chimeric proteins harboring R, E, or L at position 120 of the flavoenzyme. […] A similar amount of transfected cells (expressing EYFP-hDAAO protein) was obtained for all three constructs (Table 4). The percentage of cells showing a cytosolic, peroxisomal, and nuclear localization of the flavoenzyme was determined by comparing the yellow fluorescence signal of EYFP-hDAAO variants with those of the markers PMP-70 (for peroxisomes) and DRAQ5™ dye (for nuclei, Figure 5). The amount of cytosolic wild-type EYFP-hDAAO decreased with time after transfection (28% of the signal is cytosolic at 72 h vs. 94% at 24 h), as did the amount of nuclear signal (Table 4 and Figure 6). […]

[6] = Standard DAAO activity assay of purified hDAAO variants (oxygen electrode, 28 mM D-alanine); assay type: biochemical; conditions: pH 8.5, 25°C
[7] = parameters: method as in Molla et al. (2006) and Caldinelli et al. (2009); conditions: 28 mM D-alanine, pH 8.5, 25°C; ref Molla et al. (2006) and Caldinelli et al. (2009); cited from earlier work
[8] = apoprotein, no benzoate, read-out: FAD Kd, free form, first saturation phase
[9] = apoprotein, no benzoate, read-out: FAD Kd, free form, second saturation phase
[10] = in presence of 70 μM benzoate, read-out: FAD Kd, benzoate complex, first saturation phase
[11] = in presence of 70 μM benzoate, read-out: FAD Kd, benzoate complex, second saturation phase

T2 sequence (P14920 whole entry R120L): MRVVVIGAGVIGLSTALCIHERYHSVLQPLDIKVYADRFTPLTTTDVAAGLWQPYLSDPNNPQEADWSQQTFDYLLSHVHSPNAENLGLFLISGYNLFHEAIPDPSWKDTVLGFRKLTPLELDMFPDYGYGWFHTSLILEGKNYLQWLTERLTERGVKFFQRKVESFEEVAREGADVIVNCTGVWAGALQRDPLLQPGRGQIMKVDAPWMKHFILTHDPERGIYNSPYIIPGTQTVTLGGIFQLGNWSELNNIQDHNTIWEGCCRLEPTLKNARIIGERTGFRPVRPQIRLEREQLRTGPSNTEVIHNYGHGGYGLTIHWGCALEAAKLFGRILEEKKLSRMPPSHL
T1 sequence (P14920 whole entry R120E): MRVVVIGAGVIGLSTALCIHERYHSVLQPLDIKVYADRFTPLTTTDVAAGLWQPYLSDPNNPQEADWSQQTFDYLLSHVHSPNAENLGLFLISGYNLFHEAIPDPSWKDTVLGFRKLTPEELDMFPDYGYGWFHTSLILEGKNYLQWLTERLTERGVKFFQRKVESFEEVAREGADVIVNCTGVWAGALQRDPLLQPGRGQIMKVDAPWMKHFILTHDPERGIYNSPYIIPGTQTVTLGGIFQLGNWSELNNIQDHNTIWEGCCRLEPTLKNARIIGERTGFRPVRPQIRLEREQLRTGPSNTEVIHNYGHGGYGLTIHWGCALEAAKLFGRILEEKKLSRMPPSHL

Compound	hDAAO cellular distribution: A, large cytosolic aggregates detected ([5]; 24 h after transfection)	hDAAO cellular distribution: C, cytosol ([5]; 24 h after transfection)	hDAAO cellular distribution: C/P, mixed, cytosol and peroxisomes ([5]; 24 h after transfection)	hDAAO cellular distribution: N, nucleus ([5]; 24 h after transfection)	hDAAO cellular distribution: P, peroxisomes ([5]; 24 h after transfection)	hDAAO cellular distribution: A, large cytosolic aggregates detected ([5]; 48 h after transfection)	hDAAO cellular distribution: C, cytosol ([5]; 48 h after transfection)	hDAAO cellular distribution: C/P, mixed, cytosol and peroxisomes ([5]; 48 h after transfection)	hDAAO cellular distribution: N, nucleus ([5]; 48 h after transfection)	hDAAO cellular distribution: P, peroxisomes ([5]; 48 h after transfection)	hDAAO cellular distribution: A, large cytosolic aggregates detected ([5]; 72 h after transfection)	hDAAO cellular distribution: C, cytosol ([5]; 72 h after transfection)	hDAAO cellular distribution: C/P, mixed, cytosol and peroxisomes ([5]; 72 h after transfection)	hDAAO cellular distribution: N, nucleus ([5]; 72 h after transfection)	hDAAO cellular distribution: P, peroxisomes ([5]; 72 h after transfection)	Specific activity [6] [U/mg protein]	further results
Cc1cc2nc3c(=O)[nH]c(=O)nc-3n(C[C@H](O)[C@H](O)[C@H](O)COP(=O)(O)OP(=O)(O)OC[C@H]3O[C@@H](n4cnc5c(N)ncnc54)[C@H](O)[C@@H]3O)c2cc1C [FAD]	–	–	–	–	–	–	–	–	–	–	–	–	–	–	–	–	amplitude of fluorescence change, FAD binding, free form, first phase ([1]; apoprotein, no benzoate): 65%; amplitude of fluorescence change, FAD binding, free form, second phase ([1]; apoprotein, no benzoate): 35%; Kd [1, 8]: 50 ± 10 nM; Kd [1, 9]: 32000 ± 3000 nM; amplitude of fluorescence change, FAD binding, benzoate complex, first phase ([1]; in presence of 70 μM benzoate): 65%; amplitude of fluorescence change, FAD binding, benzoate complex, second phase ([1]; in presence of 70 μM benzoate): 35%; Kd [1, 10]: 610 ± 80 nM; Kd [1, 11]: ≥ 30000 nM; tighter FAD-binding (fold) [2]: 4 fold; amplitude of fluorescence change, FAD binding, free form, first phase ([3]; apoprotein, no benzoate): 60%; amplitude of fluorescence change, FAD binding, free form, second phase ([3]; apoprotein, no benzoate): 40%; Kd [3, 8]: 50 ± 10 nM; Kd [3, 9]: 23100 ± 1000 nM; amplitude of fluorescence change, FAD binding, benzoate complex, first phase ([3]; in presence of 70 μM benzoate): 75%; amplitude of fluorescence change, FAD binding, benzoate complex, second phase ([3]; in presence of 70 μM benzoate): 25%; Kd [3, 10]: 70 ± 10 nM; Kd [3, 11]: ≥ 20000 nM; Kd [4, 8]: 430 ± 20 nM; Kd [4, 9]: ≥ 30000 nM; Kd ([4]; in presence of 70 μM benzoate, monophasic, read-out: FAD Kd, benzoate complex): 480 ± 20 nM
R120E: hDAAO variant with Arg120 substituted by glutamate (His-tagged from E. coli; EYFP-tagged in U87 cells)	29.7 % of transfected cells	86.7 % of transfected cells	7.8 % of transfected cells	36.7 % of transfected cells	6.3 % of transfected cells	31.3 % of transfected cells	56.7 % of transfected cells	14.9 % of transfected cells	27.6 % of transfected cells	28.4 % of transfected cells	18.2 % of transfected cells	40.3 % of transfected cells	18.2 % of transfected cells	24.0 % of transfected cells	41.6 % of transfected cells	21.0	–
R120L: hDAAO variant with Arg120 substituted by leucine (His-tagged from E. coli; EYFP-tagged in U87 cells)	41.5 % of transfected cells	93.1 % of transfected cells	3.8 % of transfected cells	20.8 % of transfected cells	3.1 % of transfected cells	22.6 % of transfected cells	59.7 % of transfected cells	21.0 % of transfected cells	20.2 % of transfected cells	19.4 % of transfected cells	35.6 % of transfected cells	45.5 % of transfected cells	21.2 % of transfected cells	13.1 % of transfected cells	34.3 % of transfected cells	17.6	–
Wild-type: recombinant wild-type human D-amino acid oxidase (His-tagged from E. coli; EYFP-tagged in U87 cells)	18.7 % of transfected cells	69.4 % of transfected cells	13.4 % of transfected cells	14.4 % of transfected cells	17.2 % of transfected cells	15.4 % of transfected cells	21.2 % of transfected cells	26.9 % of transfected cells	9.6 % of transfected cells	51.9 % of transfected cells	5.6 % of transfected cells	10.4 % of transfected cells	18.4 % of transfected cells	4.0 % of transfected cells	71.2 % of transfected cells	–	Specific activity [7]: 12.0 U/mg protein; cytosolic signal ([5]; 72 h after transfection): 28%
